pIC50: −log10 of the molar value.
What was measured:
[1] = biological target: T1, Estrogen-related receptor gamma (Homo sapiens, UniProt P62508)
T1 sequence (P62508 whole entry): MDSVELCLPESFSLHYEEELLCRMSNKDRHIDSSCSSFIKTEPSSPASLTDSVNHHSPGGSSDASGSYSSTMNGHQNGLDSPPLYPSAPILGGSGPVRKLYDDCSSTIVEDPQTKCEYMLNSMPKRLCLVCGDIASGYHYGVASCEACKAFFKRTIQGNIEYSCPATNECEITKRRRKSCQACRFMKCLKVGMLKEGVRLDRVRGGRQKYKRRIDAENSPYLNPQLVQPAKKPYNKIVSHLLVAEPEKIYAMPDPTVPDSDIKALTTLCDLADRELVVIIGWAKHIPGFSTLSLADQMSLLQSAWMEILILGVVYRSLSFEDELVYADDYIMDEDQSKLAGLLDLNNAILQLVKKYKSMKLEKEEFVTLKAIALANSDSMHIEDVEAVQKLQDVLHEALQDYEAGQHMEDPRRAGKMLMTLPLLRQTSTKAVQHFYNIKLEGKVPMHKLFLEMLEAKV
Description: Inhibition of fluorescien-conjugated coactivator PGC1a binding to GST-tagged human ERRgamma LBD after 1 hr by TR-FRET assay

[2] = biological target: T2, CYP1A2 (Homo sapiens, UniProt P05177); assay: Inhibition of CYP1A2 in human liver microsomes assessed as remaining activity by measuring phenacetin O-deethylase activity at 10 uM pre-incubated for 5 mins followed by NADPH regenerating system addition by LC-MS/MS analysis relative to control; type: ADME; details: probe phenacetin (O-deethylation), read-out: Activity
T2 sequence (P05177 whole entry): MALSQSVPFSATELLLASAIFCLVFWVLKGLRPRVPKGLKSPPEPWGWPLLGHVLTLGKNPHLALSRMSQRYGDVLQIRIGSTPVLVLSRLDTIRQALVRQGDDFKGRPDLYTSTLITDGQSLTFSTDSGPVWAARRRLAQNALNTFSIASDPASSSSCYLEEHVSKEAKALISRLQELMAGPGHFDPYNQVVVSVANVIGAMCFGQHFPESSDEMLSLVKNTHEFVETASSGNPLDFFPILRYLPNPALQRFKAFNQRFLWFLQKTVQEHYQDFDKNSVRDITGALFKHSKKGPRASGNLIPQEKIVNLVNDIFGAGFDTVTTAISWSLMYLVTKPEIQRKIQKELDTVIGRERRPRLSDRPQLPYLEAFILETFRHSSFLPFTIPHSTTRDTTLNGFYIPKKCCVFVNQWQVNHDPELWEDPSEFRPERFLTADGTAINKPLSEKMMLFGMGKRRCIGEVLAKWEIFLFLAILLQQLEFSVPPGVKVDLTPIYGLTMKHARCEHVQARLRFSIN

[3] = biological target: CYP2C19 (Homo sapiens, UniProt P33261); assay: Inhibition of CYP2C19 in human liver microsomes assessed as remaining activity by measuring S-mephenytoin 4-hydroxylase activity at 10 uM pre-incubated for 5 mins followed by NADPH regenerating system addition by LC-MS/MS analysis relative to control; type: ADME; details: probe S-mephenytoin (4-hydroxylation), read-out: Activity
Sequence of CYP2C19 (P33261 whole entry): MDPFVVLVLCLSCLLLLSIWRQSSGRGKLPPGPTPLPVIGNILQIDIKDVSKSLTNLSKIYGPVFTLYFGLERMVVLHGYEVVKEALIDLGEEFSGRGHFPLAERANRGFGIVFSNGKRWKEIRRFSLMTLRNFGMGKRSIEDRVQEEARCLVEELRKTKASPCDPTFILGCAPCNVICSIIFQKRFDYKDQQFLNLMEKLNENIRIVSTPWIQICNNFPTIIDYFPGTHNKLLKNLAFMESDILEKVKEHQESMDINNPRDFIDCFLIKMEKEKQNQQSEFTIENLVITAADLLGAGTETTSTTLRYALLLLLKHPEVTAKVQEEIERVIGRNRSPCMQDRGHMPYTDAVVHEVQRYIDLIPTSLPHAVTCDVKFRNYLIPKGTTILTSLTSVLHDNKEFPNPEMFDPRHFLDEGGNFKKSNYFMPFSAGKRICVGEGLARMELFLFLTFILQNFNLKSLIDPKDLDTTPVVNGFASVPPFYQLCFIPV

[4] = biological target: CYP2C9 (Homo sapiens, UniProt P11712); assay: Inhibition of CYP2C9 in human liver microsomes assessed as remaining activity by measuring tolbutamide 4-hydroxylase activity at 10 uM pre-incubated for 5 mins followed by NADPH regenerating system addition by LC-MS/MS analysis relative to control; type: ADME; details: probe tolbutamide (4-hydroxylation), read-out: Activity
Sequence of CYP2C9 (P11712 whole entry): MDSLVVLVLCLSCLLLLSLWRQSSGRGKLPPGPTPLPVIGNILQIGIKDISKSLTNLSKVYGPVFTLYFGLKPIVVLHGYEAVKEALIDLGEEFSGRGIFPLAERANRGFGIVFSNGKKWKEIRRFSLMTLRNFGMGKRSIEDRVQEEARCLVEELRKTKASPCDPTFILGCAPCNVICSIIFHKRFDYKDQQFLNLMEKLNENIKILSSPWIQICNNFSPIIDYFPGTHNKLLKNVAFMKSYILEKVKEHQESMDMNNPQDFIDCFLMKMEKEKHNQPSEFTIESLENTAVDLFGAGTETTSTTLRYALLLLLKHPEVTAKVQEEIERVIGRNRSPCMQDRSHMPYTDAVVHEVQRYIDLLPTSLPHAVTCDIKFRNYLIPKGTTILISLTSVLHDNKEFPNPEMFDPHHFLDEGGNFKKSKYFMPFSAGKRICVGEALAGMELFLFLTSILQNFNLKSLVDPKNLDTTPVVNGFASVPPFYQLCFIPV

[5] = biological target: CYP3A4 (Homo sapiens, UniProt P08684); assay: Inhibition of CYP3A4 in human liver microsomes assessed as remaining activity by measuring midazolam 1'-hydroxylase activity at 10 uM pre-incubated for 5 mins followed by NADPH regenerating system addition by LC-MS/MS analysis relative to control; type: ADME; details: probe midazolam (1'-hydroxylation), read-out: Activity
Sequence of CYP3A4 (P08684 whole entry): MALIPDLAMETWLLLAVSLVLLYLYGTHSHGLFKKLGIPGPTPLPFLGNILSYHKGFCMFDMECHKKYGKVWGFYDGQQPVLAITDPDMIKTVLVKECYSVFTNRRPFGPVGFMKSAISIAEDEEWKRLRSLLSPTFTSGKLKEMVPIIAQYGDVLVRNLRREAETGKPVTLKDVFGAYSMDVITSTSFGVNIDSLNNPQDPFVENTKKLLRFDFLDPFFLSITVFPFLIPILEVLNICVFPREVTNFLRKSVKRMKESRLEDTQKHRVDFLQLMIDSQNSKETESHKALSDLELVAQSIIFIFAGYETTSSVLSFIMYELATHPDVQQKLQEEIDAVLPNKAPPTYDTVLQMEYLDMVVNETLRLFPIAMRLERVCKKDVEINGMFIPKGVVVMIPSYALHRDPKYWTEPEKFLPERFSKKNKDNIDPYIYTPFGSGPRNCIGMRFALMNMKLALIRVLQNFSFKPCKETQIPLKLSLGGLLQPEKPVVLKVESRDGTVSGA

[6] = Permeability of the compound in PBS at pH 7.4 at 10 uM after 5 hrs by LC-MS/MS analysis; type: ADME; details: not told, read-out: permeability
[7] = in vitro; details: human, liver microsomes
Description: Metabolic stability in human liver microsomes assessed as compound remaining at 1 uM after 30 mins in presence of NADPH by LC-MS/MS analysis

[8] = in vitro; details: rat, liver microsomes
Description: Metabolic stability in rat liver microsomes assessed as compound remaining at 1 uM after 30 mins in presence of NADPH by LC-MS/MS analysis

[9] = biological target: CYP2D6 (Homo sapiens, UniProt P10635); assay: Inhibition of CYP2D6 in human liver microsomes assessed as remaining activity by measuring dextromethorphan O-demethylase activity at 10 uM pre-incubated for 5 mins followed by NADPH regenerating system addition by LC-MS/MS analysis relative to control; type: ADME; details: probe dextromethorphan (O-demethylation), read-out: Activity
Sequence of CYP2D6 (P10635 whole entry): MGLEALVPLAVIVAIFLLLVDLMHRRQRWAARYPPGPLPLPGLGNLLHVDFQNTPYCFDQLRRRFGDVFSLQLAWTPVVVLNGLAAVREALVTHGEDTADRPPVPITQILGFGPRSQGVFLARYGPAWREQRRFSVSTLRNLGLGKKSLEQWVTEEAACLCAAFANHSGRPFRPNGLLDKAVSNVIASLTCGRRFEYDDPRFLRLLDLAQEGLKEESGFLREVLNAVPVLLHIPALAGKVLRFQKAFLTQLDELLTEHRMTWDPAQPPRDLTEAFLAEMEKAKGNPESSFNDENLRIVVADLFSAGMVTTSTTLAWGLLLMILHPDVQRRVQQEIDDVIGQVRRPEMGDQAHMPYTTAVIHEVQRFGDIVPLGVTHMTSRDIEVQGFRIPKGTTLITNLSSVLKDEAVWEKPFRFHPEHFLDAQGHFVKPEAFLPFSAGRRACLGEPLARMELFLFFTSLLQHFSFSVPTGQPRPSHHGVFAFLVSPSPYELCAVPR

Structure (SMILES) | pIC50 [1] | other results
CN(C)CCOc1ccc(/C(=C(/CCCO)c2cccnc2)c2ccc(Br)cc2)cc1 | < 5.00 | –
CN(C)CCOc1ccc(/C(=C(/CCCO)c2ccccc2)c2ccc(F)cc2F)cc1 | 5.17 | –
CN(C)CCOc1ccc(/C(=C(/CCCO)c2ccccc2)c2cccnc2)cc1 | < 5.00 | –
CN(C)CCOc1ccc(/C(=C(/CCCO)c2ccccc2)c2ccc(S(C)(=O)=O)cc2)cc1 | < 5.00 | –
CN(C)CCOc1ccc(/C(=C(/CCCO)c2ccccc2)c2ccc(C#N)cc2)cc1 | < 5.00 | –
Cc1ccc(/C(=C(\CCCO)c2cccnc2)c2ccc(OCCN(C)C)cc2)cc1 | < 5.00 | –
CN(C)CCOc1ccc(/C(=C(/CCCO)c2ccccc2)c2ccc(O)cc2)cc1.Cl | – | activity at 10 µM [2]: 84%; activity at 10 µM [3]: 78%; activity at 10 µM [4]: 73%; activity at 10 µM [5]: 83%; Papp at 5 h, 10 µM [6]: 0.43 ×10⁻⁶ cm/s; remaining at 0.5 h, 1 µM [7]: 43%; remaining at 0.5 h, 1 µM [8]: 26%; activity at 10 µM [9]: 82%
CN(C)CCOc1ccc(/C(=C(/CCCF)c2ccccc2)c2ccc(Br)cc2)cc1 | 6.32 | –
CN(C)CCOc1ccc(/C(=C(/CCCO)c2ccccc2)c2ccc(Cl)cc2)cc1 | 6.28 | –
COc1ccc(/C(=C(\CCCO)c2ccc3cnn(C)c3c2)c2ccc(OCCN(C)C)cc2)cc1 | < 5.00 | –
CN(C)CCOc1ccc(/C(=C(/CCCO)c2ccccc2)c2ccccc2)cc1 | 5.82 | –
CN(C)CCOc1ccc(/C(=C(/CCCO)c2ccccc2)c2ccncc2)cc1 | < 5.00 | –
CN(C)CCOc1ccc(/C(=C(/CCCO)c2ccc3cnn(C)c3c2)c2ccc(Br)cc2)cc1 | 5.28 | –

Reference: ChEMBL document CHEMBL3856205, “Synthesis and biological evaluation of novel 4-hydroxytamoxifen analogs as estrogen-related receptor gamma inverse agonists” (Eur J Med Chem, 2016)
